Source: patent US3960833A, “Butirosin A 3",5"-O-isopropylidene derivatives” (Bristol-Myers Company, priority 1975, dated 1976)
In brackets after ≈: the same amount, converted by molar mass.

Legend:
Assay in all cases: MIC by Steers agar-dilution method on Mueller-Hinton medium
Assay type in all cases: cell-based
E. coli A20107 = conditions: Escherichia coli; E. coli A20107; Mueller-Hinton medium; read-out: MIC
Description: (§1) Illustrated below is a table showing the minimal inhibitory concentrations (MIC's) of butirosin A, 4'-deoxybutirosin A and compound 11 (BB-K186) against a variety of gram-positive and gram-negativebacteria as obtained by the Steers agar-dilution method on Mueller-Hinton medium.

E. coli A20732 = conditions: Escherichia coli; E. coli A20732; Mueller-Hinton medium; read-out: MIC
Description: as §1

E. coli A20895 = conditions: Escherichia coli; E. coli A20895; Mueller-Hinton medium; read-out: MIC
Description: as §1

E. coli JR35/C600 = conditions: Escherichia coli
Description: as §1

E. coli JR66/W677 = conditions: Escherichia coli
Description: as §1

E. coli ML1630 = conditions: Escherichia coli; E. coli ML1630; Mueller-Hinton medium; read-out: MIC
Description: as §1

E. coli NIHJ = conditions: Escherichia coli; E. coli NIHJ; Mueller-Hinton medium; read-out: MIC
Description: as §1

E. coli NR79/W677 = conditions: Escherichia coli
Description: as §1

E. coli PO1495 = conditions: Escherichia coli
Description: as §1

E. coli R5 = conditions: Escherichia coli; E. coli R5; Mueller-Hinton medium; read-out: MIC
Description: as §1

Ent. cloacae A20364 = conditions: Enterobacter cloacae; Ent. cloacae A20364; Mueller-Hinton medium; read-out: MIC
Description: as §1

Ent. cloacae A21006 = conditions: Enterobacter cloacae; Ent. cloacae A21006; Mueller-Hinton medium; read-out: MIC
Description: as §1

K. pneumoniae 22-3038 = conditions: Klebsiella pneumoniae, 223038; K. pneumoniae 22-3038; Mueller-Hinton medium; read-out: MIC
Description: as §1

K. pneumoniae D11 = conditions: Klebsiella pneumoniae; K. pneumoniae D11; Mueller-Hinton medium; read-out: MIC
Description: as §1

Pr. mirabilis A9554 = conditions: Proteus mirabilis; Pr. mirabilis A9554; Mueller-Hinton medium; read-out: MIC
Description: as §1

Pr. morganii A20031 = conditions: Morganella morganii; Pr. morganii A20031; Mueller-Hinton medium; read-out: MIC
Description: as §1

Pr. vulgaris A9436 = conditions: Proteus vulgaris; Pr. vulgaris A9436; Mueller-Hinton medium; read-out: MIC
Description: as §1

Prov. stuartii A20894 = conditions: Providencia stuartii; Prov. stuartii A20894; Mueller-Hinton medium; read-out: MIC
Description: as §1

Ps. aeruginosa A20601 = conditions: Pseudomonas aeruginosa; Ps. aeruginosa A20601; Mueller-Hinton medium; read-out: MIC
Description: as §1

Ps. aeruginosa A20635 = conditions: Pseudomonas aeruginosa; Ps. aeruginosa A20635; Mueller-Hinton medium; read-out: MIC
Description: as §1

Ps. aeruginosa A20896 = conditions: Pseudomonas aeruginosa; Ps. aeruginosa A20896; Mueller-Hinton medium; read-out: MIC
Description: as §1

Ps. aeruginosa A9930 = conditions: Pseudomonas aeruginosa; Ps. aeruginosa A9930; Mueller-Hinton medium; read-out: MIC
Description: as §1

Ps. aeruginosa GN-315 = conditions: Pseudomonas aeruginosa, GN315; Ps. aeruginosa GN-315; Mueller-Hinton medium; read-out: MIC
Description: as §1

Ps. aeruginosa No. 130 = conditions: Pseudomonas aeruginosa; Ps. aeruginosa No. 130; Mueller-Hinton medium; read-out: MIC
Description: as §1

Pseudomonas sp. A20621 = conditions: Pseudomonas sp. A20621; Mueller-Hinton medium; read-out: MIC
Description: as §1

S. aureus A20239 = conditions: Staphylococcus aureus; S. aureus A20239; Mueller-Hinton medium; read-out: MIC
Description: as §1

S. aureus D133 = conditions: Staphylococcus aureus; S. aureus D133; Mueller-Hinton medium; read-out: MIC
Description: as §1

S. aureus D137 = conditions: Staphylococcus aureus; S. aureus D137; Mueller-Hinton medium; read-out: MIC
Description: as §1

S. aureus D193 = conditions: Staphylococcus aureus; S. aureus D193; Mueller-Hinton medium; read-out: MIC
Description: as §1

S. aureus Smith = conditions: Staphylococcus aureus; S. aureus Smith; Mueller-Hinton medium; read-out: MIC
Description: as §1

Ser. marcescens A20019 = conditions: Serratia marcescens; Ser. marcescens A20019; Mueller-Hinton medium; read-out: MIC
Description: as §1

Ser. marcescens A21247 = conditions: Serratia marcescens; Ser. marcescens A21247; Mueller-Hinton medium; read-out: MIC
Description: as §1

Which MIC (E. coli A20107) does the source give for NCC[C@H](O)C(=O)N[C@@H]1C[C@H](N)[C@@H](O[C@H]2O[C@H](CN)C[C@H](O)[C@H]2N)[C@H](O[C@@H]2O[C@H](CO)[C@H](O)[C@H]2O)[C@H]1O [Bu-1975C1, 4'-deoxybutirosin A] here?
Its MIC is 3.1 µg/mL (≈ 5.75 µM).

What about the MIC (E. coli A20732) of the same compound?
The MIC was 1.6 µg/mL (≈ 2.97 µM).

And the MIC (E. coli A20895)?
The MIC was 3.1 µg/mL (≈ 5.75 µM).

What about the MIC (E. coli JR35/C600) of the same compound?
Its MIC is 0.8 µg/mL (≈ 1.48 µM).

What about the MIC (E. coli JR66/W677) of the same compound?
Its MIC is 6.3 µg/mL (≈ 11.7 µM).

And the MIC (E. coli ML1630)?
The MIC was 3.1 µg/mL (≈ 5.75 µM).

What about the MIC (E. coli NIHJ) of the same compound?
Its MIC is 1.6 µg/mL (≈ 2.97 µM).

And the MIC (E. coli NR79/W677)?
Its MIC is greater than 100 µg/mL.

And the MIC (E. coli PO1495)?
The MIC was 1.6 µg/mL (≈ 2.97 µM).

And the MIC (E. coli R5)?
Its MIC is 3.1 µg/mL (≈ 5.75 µM).

And the MIC (Ent. cloacae A20364)?
Its MIC is 3.1 µg/mL (≈ 5.75 µM).

And the MIC (Ent. cloacae A21006)?
Its MIC is 6.3 µg/mL (≈ 11.7 µM).

What about the MIC (K. pneumoniae 22-3038) of the same compound?
The MIC was 6.3 µg/mL (≈ 11.7 µM).

And the MIC (K. pneumoniae D11)?
The MIC was 0.8 µg/mL (≈ 1.48 µM).

What about the MIC (Pr. mirabilis A9554) of the same compound?
The MIC was 1.6 µg/mL (≈ 2.97 µM).

And the MIC (Pr. morganii A20031)?
Its MIC is 3.1 µg/mL (≈ 5.75 µM).

What about the MIC (Pr. vulgaris A9436) of the same compound?
The MIC was 0.8 µg/mL (≈ 1.48 µM).

What about the MIC (Prov. stuartii A20894) of the same compound?
Its MIC is greater than 100 µg/mL.

And the MIC (Ps. aeruginosa A20601)?
The MIC was 25 µg/mL (≈ 46.3 µM).

What about the MIC (Ps. aeruginosa A20635) of the same compound?
Its MIC is greater than 100 µg/mL.

What about the MIC (Ps. aeruginosa A20896) of the same compound?
The MIC was 50 µg/mL (≈ 92.7 µM).

What about the MIC (Ps. aeruginosa A9930) of the same compound?
Its MIC is 1.6 µg/mL (≈ 2.97 µM).

What about the MIC (Ps. aeruginosa GN-315) of the same compound?
The MIC was greater than 100 µg/mL.

What about the MIC (Ps. aeruginosa No. 130) of the same compound?
Its MIC is 25 µg/mL (≈ 46.3 µM).

What about the MIC (Pseudomonas sp. A20621) of the same compound?
Its MIC is greater than 100 µg/mL.

And the MIC (S. aureus A20239)?
Its MIC is 6.3 µg/mL (≈ 11.7 µM).

What about the MIC (S. aureus D133) of the same compound?
Its MIC is 6.3 µg/mL (≈ 11.7 µM).

And the MIC (S. aureus D137)?
Its MIC is 25 µg/mL (≈ 46.3 µM).

What about the MIC (S. aureus D193) of the same compound?
The MIC was 3.1 µg/mL (≈ 5.75 µM).

And the MIC (S. aureus Smith)?
Its MIC is 1.6 µg/mL (≈ 2.97 µM).

And the MIC (Ser. marcescens A20019)?
The MIC was 6.3 µg/mL (≈ 11.7 µM).

What about the MIC (Ser. marcescens A21247) of the same compound?
The MIC was 6.3 µg/mL (≈ 11.7 µM).
